Experimental data as given in ChEMBL document CHEMBL5325423, “Discovery of 7H-Pyrrolo[2,3-d]pyrimidine Derivatives as potent hematopoietic progenitor kinase 1 (HPK1) inhibitors” (Eur J Med Chem, 2023).

Key:
[1] = biological target: T1, Mitogen-activated protein kinase kinase kinase kinase 1 (Homo sapiens, UniProt Q92918); assay: Inhibition of human HPK1 using myelin basic protein and [gamma33P]ATP as substrate incubated for 40 mins in presence of Mg/ATP by radiometric scintillation counting analysis
T1 sequence (Q92918 whole entry): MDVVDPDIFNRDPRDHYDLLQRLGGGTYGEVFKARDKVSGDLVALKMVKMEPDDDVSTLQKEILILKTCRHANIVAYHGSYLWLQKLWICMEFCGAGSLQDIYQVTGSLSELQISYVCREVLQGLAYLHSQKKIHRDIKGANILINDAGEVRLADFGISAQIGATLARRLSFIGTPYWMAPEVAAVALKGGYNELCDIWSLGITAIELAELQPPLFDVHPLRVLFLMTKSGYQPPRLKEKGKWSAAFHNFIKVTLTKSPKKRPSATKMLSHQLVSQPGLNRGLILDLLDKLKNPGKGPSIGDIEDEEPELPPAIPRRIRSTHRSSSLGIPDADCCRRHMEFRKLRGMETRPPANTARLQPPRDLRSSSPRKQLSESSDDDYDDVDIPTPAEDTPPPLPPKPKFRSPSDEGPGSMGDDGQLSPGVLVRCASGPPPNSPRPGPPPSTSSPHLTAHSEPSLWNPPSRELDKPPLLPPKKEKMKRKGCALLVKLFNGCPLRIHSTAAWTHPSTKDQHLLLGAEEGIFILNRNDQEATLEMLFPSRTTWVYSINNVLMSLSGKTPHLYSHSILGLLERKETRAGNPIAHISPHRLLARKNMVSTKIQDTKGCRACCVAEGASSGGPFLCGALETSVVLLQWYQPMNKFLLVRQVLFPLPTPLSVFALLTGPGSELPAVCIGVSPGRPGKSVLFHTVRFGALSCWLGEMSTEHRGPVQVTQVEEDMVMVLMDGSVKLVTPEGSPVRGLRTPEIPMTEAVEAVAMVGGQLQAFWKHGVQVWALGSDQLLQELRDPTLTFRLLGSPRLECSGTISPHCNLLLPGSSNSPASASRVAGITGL

[2] = biological target: Serine/threonine-protein kinase PAK 4 (Homo sapiens) (UniProt O96013); assay: Inhibition of PAK4 (unknown origin) assessed as remaining activity at 1 uM relative to control
[3] = biological target: Epidermal growth factor receptor (Homo sapiens) (UniProt P00533); assay: Inhibition of EGFR (unknown origin) assessed as remaining activity at 1 uM relative to control
[4] = biological target: Tyrosine-protein kinase SYK (Homo sapiens) (UniProt P43405); assay: Inhibition of SYK (unknown origin) assessed as remaining activity at 1 uM relative to control
[5] = biological target: Mitogen-activated protein kinase 9 (Homo sapiens) (UniProt P45984); assay: Inhibition of JNK2 (unknown origin) assessed as remaining activity at 1 uM relative to control
Chain of Mitogen-activated protein kinase 9 (Homo sapiens) (P45984 whole entry, looked up): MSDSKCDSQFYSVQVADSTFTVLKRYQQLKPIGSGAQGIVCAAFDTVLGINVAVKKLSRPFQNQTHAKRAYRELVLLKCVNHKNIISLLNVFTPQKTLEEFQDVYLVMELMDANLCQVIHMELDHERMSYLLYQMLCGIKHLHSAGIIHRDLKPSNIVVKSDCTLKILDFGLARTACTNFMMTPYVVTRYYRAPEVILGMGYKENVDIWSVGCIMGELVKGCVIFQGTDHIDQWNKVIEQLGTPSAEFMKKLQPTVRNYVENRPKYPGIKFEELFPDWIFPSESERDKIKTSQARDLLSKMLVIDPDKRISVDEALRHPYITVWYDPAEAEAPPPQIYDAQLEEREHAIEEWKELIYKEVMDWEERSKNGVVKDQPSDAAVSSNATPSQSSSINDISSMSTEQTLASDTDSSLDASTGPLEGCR

[6] = biological target: Tyrosine-protein kinase ABL1 (Homo sapiens) (UniProt P00519); assay: Inhibition of ABL (unknown origin) assessed as remaining activity at 1 uM relative to control
[7] = biological target: ALK tyrosine kinase receptor (Homo sapiens) (UniProt Q9UM73); assay: Inhibition of ALK (unknown origin) assessed as remaining activity at 1 uM relative to control
[8] = biological target: Leucine-rich repeat serine/threonine-protein kinase 2 (Homo sapiens) (UniProt Q5S007); assay: Inhibition of LRRK2 (unknown origin) at 1 uM
Chain of Leucine-rich repeat serine/threonine-protein kinase 2 (Homo sapiens) (Q5S007 whole entry): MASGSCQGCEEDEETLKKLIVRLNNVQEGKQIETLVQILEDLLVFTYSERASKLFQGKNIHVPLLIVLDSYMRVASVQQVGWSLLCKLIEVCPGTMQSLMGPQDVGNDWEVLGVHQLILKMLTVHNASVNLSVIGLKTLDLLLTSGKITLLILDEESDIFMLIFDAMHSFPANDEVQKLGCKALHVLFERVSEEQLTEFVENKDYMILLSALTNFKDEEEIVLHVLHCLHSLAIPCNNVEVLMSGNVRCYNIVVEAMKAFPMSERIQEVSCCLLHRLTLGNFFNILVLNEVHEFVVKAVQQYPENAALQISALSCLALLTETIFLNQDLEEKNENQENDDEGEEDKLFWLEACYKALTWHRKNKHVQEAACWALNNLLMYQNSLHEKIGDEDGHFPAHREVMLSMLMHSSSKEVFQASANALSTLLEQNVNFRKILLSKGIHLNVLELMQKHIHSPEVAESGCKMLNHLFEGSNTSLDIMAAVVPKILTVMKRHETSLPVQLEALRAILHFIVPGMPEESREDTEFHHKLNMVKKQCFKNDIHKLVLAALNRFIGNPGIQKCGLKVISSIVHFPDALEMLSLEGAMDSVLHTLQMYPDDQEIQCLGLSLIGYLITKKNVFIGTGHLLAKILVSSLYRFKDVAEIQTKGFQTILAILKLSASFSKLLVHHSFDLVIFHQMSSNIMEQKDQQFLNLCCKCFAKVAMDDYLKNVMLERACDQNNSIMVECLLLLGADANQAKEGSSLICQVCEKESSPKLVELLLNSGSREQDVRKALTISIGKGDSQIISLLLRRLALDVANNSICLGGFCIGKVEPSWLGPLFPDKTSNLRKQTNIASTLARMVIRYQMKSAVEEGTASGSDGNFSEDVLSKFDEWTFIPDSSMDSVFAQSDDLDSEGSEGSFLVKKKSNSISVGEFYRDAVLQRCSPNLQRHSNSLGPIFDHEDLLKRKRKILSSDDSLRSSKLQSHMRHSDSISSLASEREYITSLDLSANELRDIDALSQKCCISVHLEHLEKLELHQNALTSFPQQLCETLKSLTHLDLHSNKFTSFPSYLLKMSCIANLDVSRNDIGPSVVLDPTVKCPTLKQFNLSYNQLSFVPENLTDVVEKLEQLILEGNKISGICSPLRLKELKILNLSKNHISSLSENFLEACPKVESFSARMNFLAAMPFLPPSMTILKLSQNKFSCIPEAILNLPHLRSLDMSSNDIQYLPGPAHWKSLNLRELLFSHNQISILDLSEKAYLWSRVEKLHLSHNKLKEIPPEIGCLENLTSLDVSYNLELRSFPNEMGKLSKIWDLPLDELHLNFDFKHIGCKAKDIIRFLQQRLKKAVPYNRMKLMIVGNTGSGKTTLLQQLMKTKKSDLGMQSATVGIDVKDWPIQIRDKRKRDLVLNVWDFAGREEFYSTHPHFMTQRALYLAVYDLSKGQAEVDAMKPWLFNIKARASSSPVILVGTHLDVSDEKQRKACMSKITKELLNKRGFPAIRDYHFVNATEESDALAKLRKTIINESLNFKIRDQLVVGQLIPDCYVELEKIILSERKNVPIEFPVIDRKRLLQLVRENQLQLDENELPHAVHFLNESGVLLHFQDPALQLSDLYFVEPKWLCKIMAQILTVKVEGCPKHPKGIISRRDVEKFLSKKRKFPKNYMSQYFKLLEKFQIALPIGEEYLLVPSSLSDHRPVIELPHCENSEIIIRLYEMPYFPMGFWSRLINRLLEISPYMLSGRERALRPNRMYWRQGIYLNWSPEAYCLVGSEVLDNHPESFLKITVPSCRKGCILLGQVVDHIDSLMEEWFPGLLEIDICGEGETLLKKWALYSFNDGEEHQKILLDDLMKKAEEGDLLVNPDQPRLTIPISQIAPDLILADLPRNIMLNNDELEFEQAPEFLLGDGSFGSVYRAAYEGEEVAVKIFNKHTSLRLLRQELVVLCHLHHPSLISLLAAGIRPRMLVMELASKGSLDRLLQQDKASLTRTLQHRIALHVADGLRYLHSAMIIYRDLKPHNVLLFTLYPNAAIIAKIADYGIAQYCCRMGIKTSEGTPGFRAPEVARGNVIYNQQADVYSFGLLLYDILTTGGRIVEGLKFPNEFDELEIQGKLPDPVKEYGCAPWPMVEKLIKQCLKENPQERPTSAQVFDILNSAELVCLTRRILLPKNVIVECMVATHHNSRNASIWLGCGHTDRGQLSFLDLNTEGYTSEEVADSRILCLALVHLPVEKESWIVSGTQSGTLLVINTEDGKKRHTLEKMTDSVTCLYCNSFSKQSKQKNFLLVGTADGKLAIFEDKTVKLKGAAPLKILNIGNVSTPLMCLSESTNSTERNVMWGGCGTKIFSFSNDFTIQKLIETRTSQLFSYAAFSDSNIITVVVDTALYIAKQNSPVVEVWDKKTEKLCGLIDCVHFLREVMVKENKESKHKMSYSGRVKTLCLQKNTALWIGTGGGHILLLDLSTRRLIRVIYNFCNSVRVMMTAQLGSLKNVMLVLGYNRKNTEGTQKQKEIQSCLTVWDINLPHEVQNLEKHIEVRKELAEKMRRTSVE

[9] = biological target: ALK tyrosine kinase receptor (Homo sapiens) (UniProt Q9UM73); assay: Inhibition of ALK (unknown origin) at 1 uM
[10] = biological target: T1, Mitogen-activated protein kinase kinase kinase kinase 1; assay: Inhibition of human HPK1 in human Jurkat T cells assessed as increase in anti-human CD3 stimulated IL-2 secretion preincubated for 10 mins followed by anti-human CD3 stimulation and measured after 24 hrs by ELISA; type: cell-based
[11] = biological target: Tyrosine-protein kinase JAK2 (Homo sapiens) (UniProt O60674); assay: Inhibition of JAK2 (unknown origin) assessed as remaining activity at 1 uM relative to control
[12] = biological target: Leucine-rich repeat serine/threonine-protein kinase 2 (Homo sapiens) (UniProt Q5S007); assay: Inhibition of LRRK2 (unknown origin) assessed as remaining activity at 1 uM relative to control
[13] = biological target: Mitogen-activated protein kinase 8 (Homo sapiens) (UniProt P45983); assay: Inhibition of JNK1 (unknown origin) assessed as remaining activity at 1 uM relative to control
Chain of Mitogen-activated protein kinase 8 (Homo sapiens) (P45983 whole entry): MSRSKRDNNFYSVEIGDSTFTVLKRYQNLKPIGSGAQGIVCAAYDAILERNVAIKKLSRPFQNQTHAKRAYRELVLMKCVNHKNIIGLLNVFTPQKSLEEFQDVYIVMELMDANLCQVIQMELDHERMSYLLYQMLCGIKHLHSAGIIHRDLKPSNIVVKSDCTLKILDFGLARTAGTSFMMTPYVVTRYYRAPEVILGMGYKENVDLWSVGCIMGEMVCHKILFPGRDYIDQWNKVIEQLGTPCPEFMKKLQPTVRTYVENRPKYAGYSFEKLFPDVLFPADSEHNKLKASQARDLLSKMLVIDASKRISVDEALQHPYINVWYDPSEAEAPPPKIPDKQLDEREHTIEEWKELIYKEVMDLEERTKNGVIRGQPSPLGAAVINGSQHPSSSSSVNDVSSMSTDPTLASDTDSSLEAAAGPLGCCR

[14] = biological target: Tyrosine-protein kinase BTK (Homo sapiens) (UniProt Q06187); assay: Inhibition of BTK (unknown origin) assessed as remaining activity at 1 uM relative to control
[15] = biological target: Insulin-like growth factor 1 receptor (Homo sapiens) (UniProt P08069); assay: Inhibition of IGF-1R (unknown origin) assessed as remaining activity at 1 uM relative to control
[16] = biological target: Tyrosine-protein kinase Lck (Homo sapiens) (UniProt P06239); assay: Inhibition of LCK (unknown origin) assessed as remaining activity at 1 uM relative to control
[17] = biological target: Interleukin-1 receptor-associated kinase 4 (Homo sapiens) (UniProt Q9NWZ3); assay: Inhibition of IRAK4 (unknown origin) assessed as remaining activity at 1 uM relative to control
Chain of Interleukin-1 receptor-associated kinase 4 (Homo sapiens) (Q9NWZ3 whole entry): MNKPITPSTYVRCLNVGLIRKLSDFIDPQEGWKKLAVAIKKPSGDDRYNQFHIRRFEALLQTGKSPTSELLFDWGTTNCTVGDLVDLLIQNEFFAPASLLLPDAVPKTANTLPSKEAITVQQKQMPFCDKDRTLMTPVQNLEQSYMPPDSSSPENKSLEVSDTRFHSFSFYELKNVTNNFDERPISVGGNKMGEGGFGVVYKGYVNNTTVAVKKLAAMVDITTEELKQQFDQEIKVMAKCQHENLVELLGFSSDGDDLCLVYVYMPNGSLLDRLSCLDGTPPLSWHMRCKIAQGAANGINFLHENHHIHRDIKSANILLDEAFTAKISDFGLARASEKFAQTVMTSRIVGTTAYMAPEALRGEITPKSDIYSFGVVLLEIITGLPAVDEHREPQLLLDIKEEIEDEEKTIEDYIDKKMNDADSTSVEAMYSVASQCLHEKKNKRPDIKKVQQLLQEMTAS

[18] = biological target: Receptor-type tyrosine-protein kinase FLT3 (Homo sapiens) (UniProt P36888); assay: Inhibition of FLT3 (unknown origin) assessed as remaining activity at 1 uM relative to control
[19] = biological target: Tyrosine-protein kinase JAK3 (Homo sapiens) (UniProt P52333); assay: Inhibition of JAK3 (unknown origin) assessed as remaining activity at 1 uM relative to control
[20] = biological target: T1, Mitogen-activated protein kinase kinase kinase kinase 1; assay: Inhibition of human HPK1 in anti-human CD3 stimulated human Jurkat T cells assessed as inhibition of SLP76 phosphorylation preincubated for 10 mins followed by anti-human CD3 stimulation and measured after 60 mins by Western blot analysis; type: cell-based
[21] = biological target: Tyrosine-protein kinase Fyn (Homo sapiens) (UniProt P06241); assay: Inhibition of FYN (unknown origin) assessed as remaining activity at 1 uM relative to control
[22] = biological target: Mitogen-activated protein kinase 10 (Homo sapiens) (UniProt P53779); assay: Inhibition of JNK3 (unknown origin) assessed as remaining activity at 1 uM relative to control
[23] = biological target: Dual specificity protein kinase TTK (Homo sapiens) (UniProt P33981); assay: Inhibition of TTK (unknown origin) assessed as remaining activity at 1 uM relative to control
[24] = biological target: Focal adhesion kinase 1 (Homo sapiens) (UniProt Q05397); assay: Inhibition of FAK (unknown origin) assessed as remaining activity at 1 uM relative to control
[25] = biological target: Interleukin-1 receptor-associated kinase 4 (Homo sapiens) (UniProt Q9NWZ3); assay: Inhibition of IRAK4 (unknown origin) at 1 uM
[26] = biological target: Tyrosine-protein kinase receptor UFO (Homo sapiens) (UniProt P30530); assay: Inhibition of AXL (unknown origin) assessed as remaining activity at 1 uM relative to control
[27] = biological target: Tyrosine-protein kinase JAK1 (Homo sapiens) (UniProt P23458); assay: Inhibition of JAK1 (unknown origin) assessed as remaining activity at 1 uM relative to control
[28] = biological target: Tyrosine-protein kinase ZAP-70 (Homo sapiens) (UniProt P43403); assay: Inhibition of ZAP70 (unknown origin) assessed as remaining activity at 1 uM relative to control
[29] = biological target: T1, Mitogen-activated protein kinase kinase kinase kinase 1; assay: Inhibition of human HPK1 in human Jurkat T cells assessed as inhibition of SLP76 phosphorylation
[30] = biological target: T1, Mitogen-activated protein kinase kinase kinase kinase 1; assay: Inhibition of HPK1 (unknown origin)
[31] = biological target: T1, Mitogen-activated protein kinase kinase kinase kinase 1; assay: Inhibition of wild type HPK1 (unknown origin) using FAM-FPQAAsLPPYFAKKK peptide as substrate in presence of ATP by caliper assay

SMILES: CCCN(CCC)S(=O)(=O)c1ccccc1Nc1nc(Nc2cc3c(cc2OC)CCN(C)C3)nc2[nH]ccc12
- IC50 [1]: 73 nM

SMILES: COc1cc2c(cc1Nc1nc(Nc3ccccc3S(=O)(=O)N3CCOCC3)c3cc[nH]c3n1)CN(C)CC2
- IC50 [1]: 349 nM

SMILES: COc1cc2c(cc1Nc1nc(Nc3ccccc3S(=O)(=O)N(C)C)c3cc[nH]c3n1)CN(C)CC2
- IC50 [1]: 2.5 nM

SMILES: COc1cc2c(cc1Nc1nc(Nc3ccccc3S(=O)(=O)N(C)C)c3c(-c4c[nH]nc4C)c[nH]c3n1)CN(C)CC2
- IC50 [1]: 3.5 nM

SMILES: CCOc1cc(Nc2nc(Nc3ccccc3S(=O)(=O)N(C)C)c3c(-c4cccnc4)c[nH]c3n2)ccc1N1CCOCC1
- IC50 [1]: 5.5 nM

SMILES: COc1cc2c(cc1Nc1nc(Nc3ccccc3S(=O)(=O)N3CCCCC3)c3cc[nH]c3n1)CN(C)CC2
- IC50 [1]: 17.5 nM

SMILES: COc1cc2c(cc1Nc1nc(Nc3ccccc3S(=O)(=O)N(C)C)c3c(-c4ccoc4)c[nH]c3n1)CN(C)CC2
- IC50 [1]: 4 nM

SMILES: COc1cc2c(cc1Nc1nc(Nc3ccccc3S(=O)(=O)N(C)C)c3c(-c4cnn(C)c4)c[nH]c3n1)CN(C)CC2
- IC50 [1]: 9 nM

SMILES: COc1ccc(CN(C)C)cc1Nc1nc(Nc2ccccc2S(=O)(=O)N(C)C)c2c(-c3cccnc3)c[nH]c2n1
- IC50 [1]: 97.5 nM

SMILES: CCN(CC)S(=O)(=O)c1ccccc1Nc1nc(Nc2cc3c(cc2OC)CCN(C)C3)nc2[nH]ccc12
- IC50 [1]: 7 nM

SMILES: CN(C)S(=O)(=O)c1ccccc1Nc1nc(Nc2ccc(N3CCOCC3)cc2)nc2[nH]cc(-c3cccnc3)c12
- IC50 [1]: 5 nM

SMILES: COc1cc2c(cc1Nc1nc(Nc3ccccc3S(=O)(=O)N3CC(C)(C)C3)c3cc[nH]c3n1)CN(C)CC2
- IC50 [1]: 12.5 nM

SMILES: COc1cc2c(cc1Nc1nc(Nc3ccccc3OC)c3cc[nH]c3n1)CN(C)CC2
- IC50 [1]: 127 nM

SMILES: COc1cc2c(cc1Nc1nc(Nc3ccccc3)c3cc[nH]c3n1)CN(C)CC2
- IC50 [1]: 313 nM

SMILES: COc1cc2c(cc1Nc1nc(Nc3ccccc3S(=O)(=O)C(C)C)c3cc[nH]c3n1)CN(C)CC2
- IC50 [1]: 4.5 nM

SMILES: COc1cc2c(cc1Nc1nc(Nc3ccccc3S(=O)(=O)N3CCC3)c3c(-c4cccnc4)c[nH]c3n1)CN(C)CC2
- IC50 [1]: 45 nM

SMILES: COc1cc2c(cc1Nc1nc(Nc3ccccc3S(=O)(=O)N(C)C)c3c(-c4cn[nH]c4)c[nH]c3n1)CN(C)CC2
- IC50 [1]: 3 nM

SMILES: CN1CCc2cc(Cl)c(Nc3nc(Nc4ccccc4S(=O)(=O)N(C)C)c4c(-c5cccnc5)c[nH]c4n3)cc2C1
- IC50 [1]: 2 nM
- Activity [2]: > 50%
- Activity [3]: > 50%
- Activity [4]: > 50%
- Activity [5]: > 50%
- Activity [6]: > 50%
- Activity [7]: < 50%
- inhibition [8]: > 90%
- inhibition [9]: > 90%
- EC50 [10]: 1390 nM
- Activity [11]: < 50%
- Activity [12]: < 50%
- Activity [13]: > 50%
- Activity [14]: > 50%
- Activity [15]: > 50%
- Activity [16]: > 50%
- Activity [17]: < 50%
- Activity [18]: < 50%
- Activity [19]: > 50%
- IC50 [20]: 1210 nM
- Activity [21]: > 50%
- Activity [22]: > 50%
- Activity [23]: < 50%
- Activity [24]: < 50%
- inhibition [25]: > 90%
- Activity [26]: < 50%
- Activity [27]: > 50%
- Activity [28]: > 50%

SMILES: COc1cc2c(cc1Nc1nc(Nc3ccccc3P(C)(C)=O)c3cc[nH]c3n1)CN(C)CC2
- IC50 [1]: 7.5 nM

SMILES: COc1cc2c(cc1Nc1nc(Nc3ccccc3C(C)(C)C)c3cc[nH]c3n1)CN(C)CC2
- IC50 [1]: 386 nM

SMILES: COc1cc2c(cc1Nc1nc(Nc3ccccc3Cl)c3cc[nH]c3n1)CN(C)CC2
- IC50 [1]: 631 nM

SMILES: COc1cc2c(cc1Nc1nc(Nc3ccccc3F)c3cc[nH]c3n1)CN(C)CC2
- IC50 [1]: 640 nM

SMILES: CN1CCc2cc(Nc3nc(Nc4ccccc4S(=O)(=O)N(C)C)c4c(-c5cccnc5)c[nH]c4n3)ccc2C1
- IC50 [1]: 6 nM

SMILES: COc1cc2c(cc1Nc1nc(Nc3ccccc3S(=O)(=O)N(C)C)c3c(-c4cccnc4C)c[nH]c3n1)CN(C)CC2
- IC50 [1]: 29.5 nM

SMILES: COc1cc2c(cc1Nc1nc(Nc3ccccc3S(=O)(=O)N3CCCC3)c3cc[nH]c3n1)CN(C)CC2
- IC50 [1]: 1.5 nM

SMILES: COc1cc2c(cc1Nc1nc(Nc3ccccc3S(=O)(=O)N3CCC3)c3cc[nH]c3n1)CN(C)CC2
- IC50 [1]: 1 nM

SMILES: CN1CCc2ccc(Nc3nc(Nc4ccccc4S(=O)(=O)N(C)C)c4c(-c5cccnc5)c[nH]c4n3)cc2C1
- IC50 [1]: 1.5 nM

SMILES: Cn1cc(Nc2ncc(C3=CCC[C@@H](NC(=O)c4ccccc4)C3)nc2C(N)=O)cn1
- IC50 [29]: 150 nM
- IC50 [30]: 86 nM

SMILES: COc1cc2c(cc1Nc1nc(Nc3ccccc3S(=O)(=O)N3CCCC3)c3c(-c4cccnc4)c[nH]c3n1)CN(C)CC2
- IC50 [1]: 4.5 nM

SMILES: COc1cc2c(cc1Nc1nc(Nc3ccccc3S(=O)(=O)N(C)C)c3c(-c4c(C)noc4C)c[nH]c3n1)CN(C)CC2
- IC50 [1]: 42 nM

SMILES: COc1cc2c(cc1Nc1nc(Nc3ccccc3S(=O)(=O)N(C)C)c3c(-c4ccccc4)c[nH]c3n1)CN(C)CC2
- IC50 [1]: > 1000 nM

SMILES: COc1cc2c(cc1Nc1nc(Nc3ccccc3S(=O)(=O)N3CCC(C)(C)CC3)c3cc[nH]c3n1)CN(C)CC2
- IC50 [1]: 356 nM

SMILES: COc1cc2c(cc1Nc1nc(Nc3ccccc3S(=O)(=O)N(C)C)c3c(-c4ccncc4)c[nH]c3n1)CN(C)CC2
- IC50 [1]: 9.5 nM

SMILES: COc1cc2c(cc1Nc1nc(Nc3ccccc3S(=O)(=O)N(C)C)c3c(-c4cnccc4C)c[nH]c3n1)CN(C)CC2
- IC50 [1]: 14 nM

SMILES: COc1cc(N2CCOCC2)ccc1Nc1nc(Nc2ccccc2S(=O)(=O)N(C)C)c2c(-c3cccnc3)c[nH]c2n1
- IC50 [1]: 781 nM

SMILES: COc1cc(Nc2nc(Nc3ccccc3S(=O)(=O)N(C)C)c3c(-c4cccnc4)c[nH]c3n2)ccc1N1CCOCC1
- IC50 [1]: 4.5 nM

SMILES: COc1cc2c(cc1Nc1nc(Nc3ccccc3S(=O)(=O)N(C)C)c3c(-c4ccc(N)nc4)c[nH]c3n1)CN(C)CC2
- IC50 [1]: 12 nM

SMILES: COc1cc2c(cc1Nc1ncc(Cl)c(Nc3ccccc3P(C)(C)=O)n1)CN(C)CC2
- IC50 [31]: < 5 nM

SMILES: COc1cc2c(cc1Nc1nc(Nc3ccccc3C)c3cc[nH]c3n1)CN(C)CC2
- IC50 [1]: 454 nM

SMILES: COc1cc2c(cc1Nc1nc(Nc3ccccc3OC(C)C)c3cc[nH]c3n1)CN(C)CC2
- IC50 [1]: 84 nM

SMILES: COc1cc2c(cc1Nc1nc(Nc3ccccc3S(=O)(=O)N(C)C)c3c(-c4ccn(C)c(=O)c4)c[nH]c3n1)CN(C)CC2
- IC50 [1]: 9 nM

SMILES: COc1cc2c(cc1Nc1nc(Nc3ccccc3S(=O)(=O)N(C)C)c3c(-c4cccnc4)c[nH]c3n1)CN(C(C)C)CC2
- IC50 [1]: 12 nM
